Experiment: Dynamic Vapor Sorption (DVS) analysis
Format: physicochemical
Protocol: Dynamic Vapor Sorption (DVS) analysis was performed with a Surface Measurement Systems DVS-1 water vapor sorption analyzer. The experiments were run by placing the sample on a quartz holder on top of a microbalance, and allowing the sample to equilibrate at 50% relative humidity (r.h.) before starting the pre-defined humidity program. The program proceeded in the following steps: 1 hour at 50% r.h.; 50% to 0% r.h. at a rate of 5% r.h. change per hour; 5 hours at 0% r.h; 0% r.h to […]. at 5% r.h change per hour; 5 hours at 95% r.h.; 95% r.h. to 50% r.h. at a rate of 5% r.h. change per hour, and followed by one hour at 50% r.h.

SMILES | water content by DVS (after mass loss at lowest relative humidity of 0.4%) | water content by DVS (at the start of the experiment) | water content by DVS (mass gain at 95% relative humidity) | hygroscopicity (DVS, 50 hours, 5 hours at 95% relative humidity)
CS(=O)(=O)c1cccc(C[C@H](NC(=O)c2c(Cl)cc3c(c2Cl)CCN(C(=O)c2ccc4ccoc4c2)C3)C(=O)O)c1 [Crystalline Form A] | 0.5 mole water per mole free acid | about 0.9 mole water per mole free acid | 1.1 mole water per mole free acid | –
CS(=O)(=O)c1cccc(C[C@H](NC(=O)c2c(Cl)cc3c(c2Cl)CCN(C(=O)c2ccc4ccoc4c2)C3)C(=O)O)c1 [Crystalline Form B] | – | – | – | does not appear to be hygroscopic
